Results reported in PubChem BioAssay (NCI).
“And” between values parts separate entries of the source, which are not always exact repeats. Equal values may be shown once.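 Tested at 5 concentrations; 48 h exposure; 96-well plates; endpoints linearly interpolated, else capped at highest concentration. Abbreviation: GI50, concentration required for 50% inhibition of growth. Definition used: TGI = concentration required for complete inhibition of growth.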

What was measured:
Test in all cases: NCI tumour cell line growth inhibition, 48 h
MDA-MB-468 breast = tested on: MDA-MB-468 breast
786-0 renal = tested on: 786-0 renal
A498 renal = tested on: A498 renal
A549 NSCLC = tested on: A549 NSCLC
ACHN renal = tested on: ACHN renal
BT-549 breast = tested on: BT-549 breast
CAKI-1 renal = tested on: CAKI-1 renal
CCRF-CEM leukemia = tested on: CCRF-CEM leukemia
COLO 205 colon = tested on: COLO 205 colon
DU-145 prostate = tested on: DU-145 prostate
EKVX NSCLC = tested on: EKVX NSCLC
HCC-2998 colon = tested on: HCC-2998 colon
HCT-116 colon = tested on: HCT-116 colon
HCT-15 colon = tested on: HCT-15 colon
HL-60(TB) leukemia = tested on: HL-60(TB) leukemia
HOP-62 NSCLC = tested on: HOP-62 NSCLC
HOP-92 NSCLC = tested on: HOP-92 NSCLC
HS 578T breast = tested on: HS 578T breast
HT29 colon = tested on: HT29 colon
IGROV1 ovarian = tested on: IGROV1 ovarian
K-562 leukemia = tested on: K-562 leukemia
KM12 colon = tested on: KM12 colon
LOX IMVI melanoma = tested on: LOX IMVI melanoma
M14 melanoma = tested on: M14 melanoma
MALME-3M melanoma = tested on: MALME-3M melanoma
MCF7 breast = tested on: MCF7 breast
MDA-MB-231 breast = tested on: MDA-MB-231 breast
MDA-MB-435 = tested on: MDA-MB-435
NCI-H226 lung = tested on: NCI-H226 lung
NCI-H23 lung = tested on: NCI-H23 lung
NCI-H522 lung = tested on: NCI-H522 lung
NCI/ADR-RES ovarian = tested on: NCI/ADR-RES ovarian
OVCAR-3 ovarian = tested on: OVCAR-3 ovarian
OVCAR-4 ovarian = tested on: OVCAR-4 ovarian
OVCAR-5 ovarian = tested on: OVCAR-5 ovarian
OVCAR-8 ovarian = tested on: OVCAR-8 ovarian
PC-3 prostate = tested on: PC-3 prostate
RPMI-8226 leukemia = tested on: RPMI-8226 leukemia
RXF 393 renal = tested on: RXF 393 renal
SF-268 CNS = tested on: SF-268 CNS
SF-295 CNS = tested on: SF-295 CNS
SF-539 CNS = tested on: SF-539 CNS
SK-MEL-2 melanoma = tested on: SK-MEL-2 melanoma
SK-MEL-28 melanoma = tested on: SK-MEL-28 melanoma
SK-MEL-5 melanoma = tested on: SK-MEL-5 melanoma
SK-OV-3 ovarian = tested on: SK-OV-3 ovarian
SN12C renal = tested on: SN12C renal
SNB-19 CNS = tested on: SNB-19 CNS
SNB-75 CNS = tested on: SNB-75 CNS
T-47D breast = tested on: T-47D breast
TK-10 renal = tested on: TK-10 renal
U251 CNS = tested on: U251 CNS
UACC-257 melanoma = tested on: UACC-257 melanoma
UACC-62 melanoma = tested on: UACC-62 melanoma
UO-31 renal = tested on: UO-31 renal

## OC1CCC(Oc2cccc3cnc(Nc4ccc5nc[nH]c5c4)nc23)CC1 (configuration not stated)
MDA-MB-468 breast
  GI50: 0.327 µM
  TGI: 1.37 µM

## Cc1ccc(-c2cc3nc(-c4ccccc4)nc(C(Cl)Cl)n3n2)cc1
MDA-MB-468 breast
  GI50: 0.383 µM
  TGI: 1.31 µM

## CCOC(=O)/C=C/c1ccc(C(=O)OCC)[nH]1
MDA-MB-468 breast
  GI50: 2.53 µM
  TGI: 8.16 µM

## CCN(CC)CC(C)Nc1ccc(C)c2sc3ccccc3c(=O)c12 (configuration not stated)
MDA-MB-468 breast
  GI50: 2.57 µM
  TGI: 7.57 µM

## CCCCc1cc(O)ccc1O
MDA-MB-468 breast
  GI50: 14 µM
  TGI: 31.7 µM

## O=C1NC(=O)C(c2ccccc2Cl)=C1Nc1cccc(O)c1
MDA-MB-468 breast
  GI50: 0.706 µM
  TGI: 7.16 µM

## O=C(/C=C/c1ccc([N+](=O)[O-])o1)NNC(=O)c1cc2ccccc2cc1O
MDA-MB-468 breast
  GI50: 0.721 µM
  TGI: 3.59 µM

## O=C(Nc1ccc(Br)cc1)c1cc(Br)cc(Br)c1O
MDA-MB-468 breast
  GI50: 2.32 µM
  TGI: 5.66 µM

## Cc1cc(O)cc(C)c1/C=C/c1cncc(C(=O)N(C)C)c1
MDA-MB-468 breast
  GI50: > 25 µM
  TGI: > 25 µM

## CS(=O)(=O)Nc1cc(-c2ccc3ncc(C#N)c(NCc4ccccc4F)c3c2)cnc1Cl
MDA-MB-468 breast
  GI50: 0.0781 µM
  TGI: 1.08 µM

## Cc1ccc(S(=O)(=O)NCCN2c3nc4ccccc4cc3Sc3cc4ccccc4nc32)cc1
MDA-MB-468 breast
  GI50: 13.1 µM
  TGI: > 100 µM

## O=C(N/N=C/c1ccc(F)cc1)c1[nH]c2ccc(I)cc2c1-c1ccccc1
MDA-MB-468 breast
  GI50: 0.345 µM
  TGI: 13.9 µM

## CCN(CC)C(=S)SSC1CCCCC1
MDA-MB-468 breast
  GI50: 19.4 µM
  TGI: 49.4 µM

## C=C(CNCCO)[C@@H]1CC[C@]2(CO)CC[C@]3(C)[C@H](CC[C@@H]4[C@@]5(C)CCC(NCCc6ccc(O)cc6)C(C)(C)[C@@H]5CC[C@]43C)[C@@H]12 (some centres not stated)
MDA-MB-468 breast
  GI50: 0.782 µM
  TGI: 2.34 µM

## CCC(=O)N1C/C(=C/c2ccc(OC)cc2)C(=O)/C(=C/c2ccc(OC)cc2)C1
MDA-MB-468 breast
  GI50: 1.85 µM
  TGI: 4.92 µM

## CC/C=C\C[C@H](O)C/C=C1/C(=O)C=C[C@@H]1C/C=C\CCCC(N)=O
MDA-MB-468 breast
  GI50: 1.12 µM
  TGI: 2.86 µM

## COC(=O)c1ccc2c(c1)c1c(C)c3cnccc3c(C)c1n2C
MDA-MB-468 breast
  GI50: 0.225 µM
  TGI: 0.677 µM

## Cn1cc(-c2cc(N)n3nc(-c4c[nH]c5ccccc45)cc3n2)c2cc(Br)cnc21
786-0 renal
  GI50: 1.81 µM
  TGI: 3.45 µM
A498 renal
  GI50: 4.9 µM
  TGI: 19.1 µM
A549 NSCLC
  GI50: 2.78 µM
  TGI: 11.1 µM
ACHN renal
  GI50: 2.17 µM
  TGI: 6.21 µM
BT-549 breast
  GI50: 4.1 µM
  TGI: 18 µM
CAKI-1 renal
  GI50: 1.69 µM
  TGI: 3.87 µM
CCRF-CEM leukemia
  GI50: 3.71 µM
  TGI: > 100 µM
COLO 205 colon
  GI50: 1.96 µM
  TGI: 3.59 µM
DU-145 prostate
  GI50: 3.58 µM
  TGI: 12.2 µM
EKVX NSCLC
  GI50: 3.14 µM
  TGI: 13.7 µM
HCC-2998 colon
  GI50: 1.65 µM
  TGI: 3.08 µM
HCT-116 colon
  GI50: 1.82 µM
  TGI: 3.39 µM
HCT-15 colon
  GI50: 1.7 µM
  TGI: 3.51 µM
HL-60(TB) leukemia
  GI50: 2.01 µM
  TGI: 4.67 µM
HOP-62 NSCLC
  GI50: 2.12 µM
  TGI: 5.44 µM
HOP-92 NSCLC
  GI50: 1.65 µM
  TGI: 3.44 µM
HS 578T breast
  GI50: 2.61 µM
  TGI: 14.9 µM
HT29 colon
  GI50: 1.8 µM
  TGI: 3.61 µM
IGROV1 ovarian
  GI50: 3.29 µM
  TGI: 13.2 µM
K-562 leukemia
  GI50: 2.88 µM
  TGI: > 100 µM
KM12 colon
  GI50: 1.79 µM
  TGI: 3.98 µM
LOX IMVI melanoma
  GI50: 1.64 µM
  TGI: 2.99 µM
M14 melanoma
  GI50: 1.91 µM
  TGI: 3.87 µM
MALME-3M melanoma
  GI50: 2.14 µM
  TGI: 4.52 µM
MCF7 breast
  GI50: 1.95 µM
  TGI: 4.58 µM
MDA-MB-231 breast
  GI50: 1.79 µM
  TGI: 3.91 µM
MDA-MB-435
  GI50: 1.93 µM
  TGI: 3.96 µM
MDA-MB-468 breast
  GI50: 2.23 µM
  TGI: 5.42 µM
NCI-H226 lung
  GI50: 3.29 µM
  TGI: 16.3 µM
NCI-H23 lung
  GI50: 1.87 µM
  TGI: 4.16 µM
NCI-H522 lung
  GI50: 1.84 µM
  TGI: 3.67 µM
NCI/ADR-RES ovarian
  GI50: 2.21 µM
  TGI: 5.16 µM
OVCAR-3 ovarian
  GI50: 1.74 µM
  TGI: 3.37 µM
OVCAR-4 ovarian
  GI50: 2.7 µM
  TGI: 9.4 µM
OVCAR-5 ovarian
  GI50: 1.82 µM
  TGI: 4.94 µM
OVCAR-8 ovarian
  GI50: 3.22 µM
  TGI: 15.2 µM
PC-3 prostate
  GI50: 2.41 µM
  TGI: 7.91 µM
RPMI-8226 leukemia
  GI50: 3.07 µM
  TGI: 10.5 µM
RXF 393 renal
  GI50: 2.54 µM
  TGI: 6.15 µM
SF-268 CNS
  GI50: 2.42 µM
  TGI: 7.66 µM
SF-295 CNS
  GI50: 1.81 µM
  TGI: 3.87 µM
SF-539 CNS
  GI50: 1.67 µM
  TGI: 3.11 µM
SK-MEL-2 melanoma
  GI50: 1.99 µM
  TGI: 4.48 µM
SK-MEL-28 melanoma
  GI50: 2.18 µM
  TGI: 5.6 µM
SK-MEL-5 melanoma
  GI50: 3.46 µM
  TGI: 13.9 µM
SK-OV-3 ovarian
  GI50: 5.91 µM
  TGI: 34.8 µM
SN12C renal
  GI50: 5.02 µM
  TGI: 21.1 µM
SNB-19 CNS
  GI50: 2.76 µM
  TGI: 8.76 µM
SNB-75 CNS
  GI50: 1.7 µM
  TGI: 17.1 µM
T-47D breast
  GI50: 3.22 µM
  TGI: 14.3 µM
TK-10 renal
  GI50: 2.69 µM
  TGI: 6.3 µM
U251 CNS
  GI50: 2.02 µM
  TGI: 4.53 µM
UACC-257 melanoma
  GI50: 3.5 µM
  TGI: 18.4 µM
UACC-62 melanoma
  GI50: 1.66 µM
  TGI: 3.28 µM
UO-31 renal
  GI50: 2.48 µM
  TGI: 10.6 µM

## O=Nc1c2cccnc2n2nnc3ccc(Cl)cc3c12
MDA-MB-468 breast
  GI50: 0.136 µM
  TGI: 0.701 µM

## Cn1cnc([N+](=O)[O-])c1Sc1ncnc2nc[nH]c12
MDA-MB-468 breast
  GI50: 2.1 µM and 3.37 µM
  TGI: 70.3 µM and > 100 µM

## COc1cccc(C2c3cc4c(cc3OC(N3CCOCC3)C2C)OCO4)c1O (configuration not stated)
MDA-MB-468 breast
  GI50: 4.26 µM
  TGI: > 100 µM

## CC1(C)C(=O)/C(=C\c2ccco2)C[C@]2(C)[C@H]3CC=C4[C@@H]5C[C@](C)(C(=O)O)CC[C@]5(C)CC[C@@]4(C)[C@]3(C)CC[C@@H]12
MDA-MB-468 breast
  GI50: 10.7 µM
  TGI: 26.5 µM

## C=C1C(=O)O[C@H]2[C@H]1CC/C(COC(=O)c1ccc(C(=O)O)s1)=C\CC[C@@]1(C)O[C@@H]21
MDA-MB-468 breast
  GI50: 1.22 µM
  TGI: 3.09 µM

## CC(=O)Oc1ccc2c(c1)CC[C@@H]1C2[C@@H](O[N+](=O)[O-])C[C@@]2(C)C1CC[C@@H]2O (some centres not stated)
MDA-MB-468 breast
  GI50: 22.5 µM
  TGI: 89.2 µM

## COc1cccc2c(=O)c3c(sc12)c(NCCCN)nc1ccccc13
MDA-MB-468 breast
  GI50: 1.63 µM
  TGI: 3.2 µM

## ClCCn1cnc2c(SCc3ccccc3)ncnc21
MDA-MB-468 breast
  GI50: 11.1 µM
  TGI: > 100 µM

## CN(C)CCNc1cccc2sc3ccc(O)cc3c(=O)c12
MDA-MB-468 breast
  GI50: 1.96 µM
  TGI: 4.56 µM

## O=[N+]([O-])/C=C\c1ccc2c(c1)OCO2
MDA-MB-468 breast
  GI50: 2.17 µM
  TGI: 5.82 µM

## CCc1ccc(C2=C(O)C(=O)C(c3ccc(CC)cc3)=C(O)C2=O)cc1
MDA-MB-468 breast
  GI50: 1.86 µM
  TGI: 6.26 µM

## CC1=CC[C@@H]2C(C)(C)[C@@H](O)CC[C@@]2(C)[C@@H]1COc1ccc2ccc(=O)oc2c1
MDA-MB-468 breast
  GI50: 3.11 µM
  TGI: 15 µM

## Cc1ccc2c(c1)sc(-c1ccc(N(C)C)cc1)[n+]2C
MDA-MB-468 breast
  GI50: 0.302 µM
  TGI: 5.74 µM

## COc1ccc(-c2cn3ccnc3c(-c3ccc4ncn(C5CCCCC5)c4c3)n2)cc1
MDA-MB-468 breast
  GI50: 0.863 µM
  TGI: > 100 µM
